Results: the supplement of paper PMC10307832

Legend:
Experiment in all cases: relative viability (nuclei count vs DMSO), 5 days (fraction); higher = more cells survive
Metformin + Olaparib = compound: CN(C)C(=N)NC(=N)N [Metformin] + O=C(c1cc(Cc2n[nH]c(=O)c3ccccc23)ccc1F)N1CCN(C(=O)C2CC2)CC1 [Olaparib] (partner 8 µM)
How it was run: (§1)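 Relative viability divides the nuclei count in treated wells by that in vehicle wells. Lung cancer cell lines were seeded in 1536-well plates, dosed by pin tool the next day, and fixed and stained after 5 days in one step with final 0.05% Triton X-100, 1% formaldehyde and 1 ug/ml Hoechst. Dosing was a single drug or a fixed anchor-drug dose plus five library-drug doses (not always all listed) in √10 steps, and values are medians of duplicate plates imaged at 4×.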

Metformin + Tozasertib = compound: CN(C)C(=N)NC(=N)N [Metformin] + Cc1cc(Nc2cc(N3CCN(C)CC3)nc(Sc3ccc(NC(=O)C4CC4)cc3)n2)n[nH]1 [Tozasertib] (partner 0.1 µM)
How it was run: as §1

Metformin + Lapatinib = compound: CN(C)C(=N)NC(=N)N [Metformin] + CS(=O)(=O)CCNCc1ccc(-c2ccc3ncnc(Nc4ccc(OCc5cccc(F)c5)c(Cl)c4)c3c2)o1 [Lapatinib] (partner 2 µM)
How it was run: as §1

Metformin + Bortezomib = compound: CN(C)C(=N)NC(=N)N [Metformin] + CC(C)C[C@H](NC(=O)[C@H](Cc1ccccc1)NC(=O)c1cnccn1)B(O)O [Bortezomib] (partner 0.002 µM)
How it was run: as §1

Row | Cell Line | relative viability (Metformin + Olaparib; first compound 10 µM) | relative viability (Metformin + Olaparib; first compound 31.62 µM) | relative viability (Metformin + Olaparib; first compound 100 µM) | relative viability (Metformin + Olaparib; first compound 316.23 µM) | relative viability (Metformin + Olaparib; first compound 1000 µM) | relative viability (Metformin + Tozasertib; first compound 10 µM) | relative viability (Metformin + Tozasertib; first compound 31.62 µM) | relative viability (Metformin + Tozasertib; first compound 100 µM) | relative viability (Metformin + Tozasertib; first compound 316.23 µM) | relative viability (Metformin + Tozasertib; first compound 1000 µM) | relative viability (Metformin + Lapatinib; first compound 10 µM) | relative viability (Metformin + Lapatinib; first compound 31.62 µM) | relative viability (Metformin + Lapatinib; first compound 100 µM) | relative viability (Metformin + Lapatinib; first compound 316.23 µM) | relative viability (Metformin + Lapatinib; first compound 1000 µM) | relative viability (Metformin + Bortezomib; first compound 10 µM) | relative viability (Metformin + Bortezomib; first compound 31.62 µM) | relative viability (Metformin + Bortezomib; first compound 100 µM) | relative viability (Metformin + Bortezomib; first compound 316.23 µM) | relative viability (Metformin + Bortezomib; first compound 1000 µM)
1 | NCI-H661 | 0.648 | 0.718 | 0.715 | 0.694 | 0.711 | 0.344 | 0.373 | 0.377 | 0.362 | 0.366 | 0.58 | 0.783 | 0.811 | 0.688 | 0.57 | 0.867 | 0.881 | 1.36 | 0.917 | 1.06
2 | 201T |  | 0.802 | 0.815 | 0.775 | 0.822 |  | 0.93 | 1.04 | 0.857 | 0.92 |  | 1.08 | 1.07 | 0.989 | 1 |  | 1.15 | 1.1 | 1.06 | 1.12
3 | HARA | 0.989 | 0.81 | 0.701 | 0.762 | 1.01 |  | 0.0842 | 0.14 | 0.101 | 0.105 | 1 | 1 | 1.14 | 1 | 0.957 | 1.2 | 1.07 | 1.19 | 1.13 | 1.18
4 | NCI-H3122 | 0.442 | 0.555 | 0.587 | 0.54 | 0.507 | 0.248 | 0.31 | 0.388 | 0.255 | 0.209 | 0.871 | 0.872 | 0.89 | 0.846 | 0.819 | 0.824 | 0.97 | 0.921 | 0.863 | 0.886
5 | NCI-H1651 | 0.151 | 0.159 | 0.144 | 0.16 | 0.146 | 0.751 | 0.847 | 0.86 | 0.728 | 0.976 | 0.877 | 0.81 | 0.822 | 0.749 | 0.865 | 0.989 | 1.15 | 1.16 | 1.04 | 1.08
6 | NCI-H2085 | 0.621 | 0.633 | 0.596 | 0.591 | 0.654 | 0.85 | 0.746 | 0.896 | 0.773 | 0.841 | 0.716 | 0.805 | 0.801 | 0.725 | 0.868 | 1.1 | 1.05 | 1.01 | 1.09 | 1.16
7 | SK-LU-1 | 0.356 | 0.375 | 0.502 | 0.389 | 0.398 | 0.263 | 0.311 | 0.272 | 0.263 | 0.307 | 0.632 | 0.88 | 0.844 | 0.694 | 0.812 | 1.45 | 1.2 | 1.1 | 1.06 | 1.27
8 | COR-L23 | 0.256 | 0.3 | 0.336 | 0.231 | 0.254 | 0.183 | 0.193 | 0.187 | 0.164 | 0.176 | 1.21 | 0.969 | 0.734 | 0.773 | 1.07 | 1.04 | 0.867 | 0.86 | 0.882 | 0.99
9 | COR-L 105 | 0.804 | 0.625 | 0.645 | 0.725 | 0.694 | 0.355 | 0.336 | 0.37 | 0.307 | 0.321 | 0.415 | 0.36 | 0.462 | 0.426 | 0.405 | 1.07 | 1.05 | 1.04 | 0.874 | 1.17
10 | HCC-44 |  | 0.893 | 0.822 | 0.947 | 0.929 | 0.971 | 0.931 | 1.06 | 0.761 | 0.757 | 1.05 | 0.976 | 1.03 | 0.939 | 1.03 | 0.861 | 0.858 | 0.88 | 0.88 | 0.856
11 | PC-3 [JPC-3] | 0.95 | 0.932 |  | 0.741 | 0.69 | 0.772 | 0.811 | 0.853 | 0.779 | 0.825 | 0.453 | 0.46 | 0.441 | 0.435 | 0.447 | 0.702 | 0.865 | 0.772 | 0.862 | 0.833
12 | H3255 | 0.487 | 0.594 | 0.523 | 0.441 | 0.402 | 0.603 | 0.551 | 0.615 | 0.562 | 0.592 | 0.254 | 0.227 | 0.291 | 0.29 | 0.211 | 0.716 | 0.89 | 0.88 | 0.991 | 0.415
13 | RERF-LC-KJ | 0.651 | 0.715 | 0.757 | 0.625 | 0.63 | 0.329 | 0.273 | 0.403 | 0.277 | 0.352 | 0.685 | 0.777 | 0.777 | 0.775 | 0.915 | 1.14 | 1.15 | 1.1 | 1.01 | 0.988
14 | NCI-H2347 | 0.585 | 0.506 | 0.376 | 0.465 | 0.512 | 0.627 | 0.51 |  | 0.492 | 0.63 | 0.582 | 0.881 | 1.04 | 0.832 | 1 | 1.09 | 1.1 | 1.23 | 1.09 | 0.641
15 | NCI-H520 | 0.276 | 0.264 | 0.276 | 0.274 | 0.259 | 0.462 | 0.496 | 0.463 | 0.498 | 0.469 | 0.849 | 1.07 | 0.948 | 0.768 | 0.892 | 0.777 | 0.716 | 0.75 | 0.67 | 0.928
16 | PC-14 | 0.233 | 0.247 | 0.259 | 0.225 | 0.222 | 0.618 | 0.714 | 0.673 | 0.674 | 0.814 | 0.432 | 0.438 | 0.37 | 0.36 | 0.372 | 0.818 | 0.943 | 0.767 | 0.906 | 0.82
17 | LCLC-103H | 0.727 | 0.713 | 0.76 | 0.737 | 0.777 | 0.557 | 0.627 | 0.568 | 0.556 | 0.592 |  |  |  |  |  | 0.971 | 1.22 | 1.06 | 1.12 | 1.06
